SMILES strings stand for the structures. A value given as a limit tells only on which side of the number the result lay.

T1 sequence (Q13535 whole entry): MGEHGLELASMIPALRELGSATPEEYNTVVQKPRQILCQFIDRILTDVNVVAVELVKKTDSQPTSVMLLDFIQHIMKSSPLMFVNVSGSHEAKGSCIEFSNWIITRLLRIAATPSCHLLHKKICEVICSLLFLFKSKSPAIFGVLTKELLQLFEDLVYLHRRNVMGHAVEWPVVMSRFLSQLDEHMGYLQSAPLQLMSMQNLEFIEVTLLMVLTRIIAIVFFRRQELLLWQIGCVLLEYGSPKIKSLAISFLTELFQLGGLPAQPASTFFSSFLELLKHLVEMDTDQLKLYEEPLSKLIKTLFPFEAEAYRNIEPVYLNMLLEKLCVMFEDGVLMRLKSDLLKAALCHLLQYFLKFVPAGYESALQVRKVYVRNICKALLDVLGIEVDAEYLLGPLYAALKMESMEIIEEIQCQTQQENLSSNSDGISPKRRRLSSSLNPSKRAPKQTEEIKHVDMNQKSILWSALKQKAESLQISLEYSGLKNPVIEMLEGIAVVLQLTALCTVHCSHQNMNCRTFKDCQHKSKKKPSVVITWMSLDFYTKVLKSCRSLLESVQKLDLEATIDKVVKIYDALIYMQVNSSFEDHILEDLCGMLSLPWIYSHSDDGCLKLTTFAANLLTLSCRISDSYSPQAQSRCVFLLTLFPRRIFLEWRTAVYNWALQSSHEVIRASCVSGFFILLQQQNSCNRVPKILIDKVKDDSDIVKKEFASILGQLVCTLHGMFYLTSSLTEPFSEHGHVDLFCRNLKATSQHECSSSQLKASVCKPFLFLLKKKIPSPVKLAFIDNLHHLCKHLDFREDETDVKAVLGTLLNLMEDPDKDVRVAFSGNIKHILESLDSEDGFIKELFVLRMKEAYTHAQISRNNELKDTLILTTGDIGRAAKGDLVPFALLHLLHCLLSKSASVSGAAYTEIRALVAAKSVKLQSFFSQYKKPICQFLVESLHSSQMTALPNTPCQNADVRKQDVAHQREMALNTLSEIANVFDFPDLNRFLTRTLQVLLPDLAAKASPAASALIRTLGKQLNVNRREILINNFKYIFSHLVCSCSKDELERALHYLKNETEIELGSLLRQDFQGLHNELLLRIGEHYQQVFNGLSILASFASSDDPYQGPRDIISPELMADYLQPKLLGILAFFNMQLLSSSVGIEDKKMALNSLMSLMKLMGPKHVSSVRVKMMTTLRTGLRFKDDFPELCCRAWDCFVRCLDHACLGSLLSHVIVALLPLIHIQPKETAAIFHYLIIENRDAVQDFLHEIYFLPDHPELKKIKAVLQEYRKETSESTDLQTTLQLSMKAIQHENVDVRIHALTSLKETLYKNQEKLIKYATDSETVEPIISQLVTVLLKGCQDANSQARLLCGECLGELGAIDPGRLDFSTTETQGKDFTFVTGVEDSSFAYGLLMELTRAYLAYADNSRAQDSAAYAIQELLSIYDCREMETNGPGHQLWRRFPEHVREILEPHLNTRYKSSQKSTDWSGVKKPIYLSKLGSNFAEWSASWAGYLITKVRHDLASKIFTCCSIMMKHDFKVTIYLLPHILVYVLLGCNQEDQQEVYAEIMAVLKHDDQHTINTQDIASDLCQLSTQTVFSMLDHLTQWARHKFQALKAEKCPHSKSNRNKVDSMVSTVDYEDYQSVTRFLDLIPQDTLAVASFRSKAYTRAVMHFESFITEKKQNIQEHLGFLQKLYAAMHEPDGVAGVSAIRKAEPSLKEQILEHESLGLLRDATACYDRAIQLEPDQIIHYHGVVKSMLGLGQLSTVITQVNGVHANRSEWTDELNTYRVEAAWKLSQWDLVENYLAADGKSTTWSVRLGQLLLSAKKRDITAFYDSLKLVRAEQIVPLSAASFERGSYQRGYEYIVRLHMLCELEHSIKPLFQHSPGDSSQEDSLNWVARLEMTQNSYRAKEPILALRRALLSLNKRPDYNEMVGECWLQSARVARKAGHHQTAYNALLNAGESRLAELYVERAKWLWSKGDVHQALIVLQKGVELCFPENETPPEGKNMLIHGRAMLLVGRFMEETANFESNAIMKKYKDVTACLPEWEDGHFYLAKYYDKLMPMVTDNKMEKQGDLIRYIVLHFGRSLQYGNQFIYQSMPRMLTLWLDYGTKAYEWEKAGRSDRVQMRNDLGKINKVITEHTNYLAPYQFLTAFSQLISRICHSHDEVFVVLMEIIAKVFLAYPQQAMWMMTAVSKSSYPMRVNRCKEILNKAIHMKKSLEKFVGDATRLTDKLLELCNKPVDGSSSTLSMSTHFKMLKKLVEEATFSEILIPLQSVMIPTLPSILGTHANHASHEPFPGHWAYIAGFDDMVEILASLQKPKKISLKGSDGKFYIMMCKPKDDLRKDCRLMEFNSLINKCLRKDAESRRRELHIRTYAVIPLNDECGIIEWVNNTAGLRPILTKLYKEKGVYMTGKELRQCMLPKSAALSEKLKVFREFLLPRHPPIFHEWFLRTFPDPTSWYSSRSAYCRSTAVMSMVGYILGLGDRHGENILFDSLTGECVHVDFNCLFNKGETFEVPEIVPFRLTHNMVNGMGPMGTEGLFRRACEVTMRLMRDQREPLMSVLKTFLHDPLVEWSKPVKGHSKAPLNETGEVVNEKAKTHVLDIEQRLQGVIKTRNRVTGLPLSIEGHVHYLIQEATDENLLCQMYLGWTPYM
T1 sequence (Q8WXE1 whole entry partner): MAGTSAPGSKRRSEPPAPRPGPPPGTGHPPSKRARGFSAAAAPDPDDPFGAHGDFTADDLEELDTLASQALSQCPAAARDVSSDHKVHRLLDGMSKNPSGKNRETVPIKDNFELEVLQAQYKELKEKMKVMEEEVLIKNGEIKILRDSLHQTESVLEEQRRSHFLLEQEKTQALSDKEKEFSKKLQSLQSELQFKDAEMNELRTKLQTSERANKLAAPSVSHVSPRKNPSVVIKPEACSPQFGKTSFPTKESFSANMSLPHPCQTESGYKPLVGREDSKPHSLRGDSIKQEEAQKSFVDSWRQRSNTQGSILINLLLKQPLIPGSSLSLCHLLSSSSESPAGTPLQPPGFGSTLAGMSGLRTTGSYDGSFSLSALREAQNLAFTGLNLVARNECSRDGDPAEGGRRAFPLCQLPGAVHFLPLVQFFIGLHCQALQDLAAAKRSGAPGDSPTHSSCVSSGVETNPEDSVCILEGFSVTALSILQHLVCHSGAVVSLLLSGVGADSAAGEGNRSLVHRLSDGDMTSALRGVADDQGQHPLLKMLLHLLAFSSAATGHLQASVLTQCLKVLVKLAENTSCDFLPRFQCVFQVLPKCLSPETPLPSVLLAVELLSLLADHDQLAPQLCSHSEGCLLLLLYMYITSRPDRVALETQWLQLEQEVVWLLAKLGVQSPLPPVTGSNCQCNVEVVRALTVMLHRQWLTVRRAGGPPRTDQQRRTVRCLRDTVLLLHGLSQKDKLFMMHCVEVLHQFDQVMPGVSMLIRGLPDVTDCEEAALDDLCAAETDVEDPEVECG

The assay has as its target T1, ATR/ATRIP (Homo sapiens, UniProt Q13535).
T1 construct: human ATR, full length, GenBank ID: NM_001184.3; p53: Sf21 insect cells
Briefly: ATR/ATRIP kinase assay (TR-FRET, p53 phosphorylation). The assay is classed as biochemical. As to conditions: Table 1, class symbols; read-out: ATR-ATRIP IC50. The protocol:
ATR/ATRIP Kinase Assay—Measurement of ATR/ATRIP Inhibition
The IC50 value was determined by an ATR/ATRIP enzymatic assay. The assay comprises two steps: the enzymatic reaction and the detection step. First, a mixture of ATR/ATRIP protein (Ataxia Telangiectasia and Rad3-related protein/ATR interacting protein), the compound in question at different concentrations, p53 as substrate protein and adenosine triphosphate (ATP) are incubated in assay buffer. ATR phosphorylates p53 at Ser15 and other residues. The amount of phosphorylated p53 is then detected using specific antibodies and the TR-FRET assay technology.
In detail: The ATR/ATRIP enzymatic assay is performed as a TR-FRET-(HTRF™, Cisbio Bioassays) based 384-well assay. In a first step, purified human recombinant ATR/ATRIP (human ATR, full length, GenBank ID: NM_001184.3, and human ATRIP, full length, GenBank ID AF451323.1, co-expressed in a mammalian cell line) is incubated in assay buffer for 15 minutes at 22° C. with test compound at different concentrations or without test compound (as a negative control). The assay buffer contains 25 mM HEPES pH 8.0, 10 mM Mg(CH3COO)2, 1 mM MnCl2, 0.1% BSA, 0.01% Brij® 35, and 5 mM dithiothreitol (DTT). […] Then, in a second step, purified human recombinant cmyc-tagged p53 (human p53, full length, GenBank ID: BC003596, expressed in Sf21 insect cells) and ATP are added and the reaction mixture is incubated for 25-35 minutes, typically 25 minutes, at 22° C. The pharmacologically relevant assay volume is 5 μl. The final concentrations in the assay during incubation of the reaction mixture are 0.3-0.5 nM, typically 0.3 nM, ATR/ATRIP, 50 nM p53, and 0.5 μM ATP. The enzymatic reaction is stopped by the addition of EDTA. […] Following signal development for 2 h the plates are analyzed in an EnVision (PerkinElmer) microplate reader using the TRF mode with laser excitation. […] Data are processed employing the Genedata Screener software. In particular, IC50 values are determined in the usual manner by fitting a dose-response curve to the data points using nonlinear regression analysis.
(In general: Time-resolved FRET reads energy transfer from a long-lived donor to a nearby acceptor.)
As to `C[C@@H]1COC[C@H]2COc3c(Cn4cc(C(=O)O)nn4)nc(-c4ccnc5[nH]ccc45)nc3N21` [A4, 1-[(5R,8aS)-5-Methyl-3-(1H-pyrrolo[2,3-b]pyridin-4-yl)-5,6,8a,9-tetrahydro-8H-7,10-dioxa-2,4,4b-triaza-phenanthren-1-ylmethyl]-1H-[1,2,3]triazole-4-carboxylic Acid], the IC50 (as a rule, the concentration needed to halve the response being measured) is 1 to 10 nM.

Consider `C[C@@H]1COC[C@H]2COc3c(nc(C(=O)N4CC[C@@H](N)C4)nc3C(C)(C)S(C)(=O)=O)N21` [A51, ((R)-3-amino-pyrrolidin-1-yl)-[(4bS,6R)-1-(1-methanesulfonyl-1-methyl-ethyl)-5-methyl-5,6,8a,9-tetrahydro-8H-7,10-dioxa-2,4,4b-triaza-phenanthren-3-yl]-methanone], for which the IC50 lay in the range of 500 to 30000 nM.

Turning to `C[C@@H]1COC[C@H]2COc3c(nc(-c4ccc(C5(N)COC5)cc4)nc3C(C)(C)S(C)(=O)=O)N21` [A62, 3-{4-[(5R,8aS)-1-(1-methanesulfonyl-1-methyl-ethyl)-5-methyl-5,6,8a,9-tetrahydro-8H-7,10-dioxa-2,4,4b-triaza-phenanthren-3-yl]-phenyl}-oxetan-3-ylamine], the IC50 fell in the range of 500 to 30000 nM.

In the case of `C[C@@H]1COC[C@H]2COc3c(nc(-c4ccc(CCN)cc4)nc3C(C)(C)S(C)(=O)=O)N21` [A45, 2-{4-[(4bS,6R)-1-(1-methanesulfonyl-1-methyl-ethyl)-5-methyl-5,6,8a,9-tetrahydro-8H-7,10-dioxa-2,4,4b-triaza-phenanthren-3-yl]-phenyl}-ethylamine], the IC50 lay within 10 to 100 nM.

With `C[C@@H]1COC[C@H]2COc3c(nc(-c4cccc(CO)c4)nc3C(C)(C)S(C)(=O)=O)N21` [A41, {3-[(5R,8aS)-1-(1-methanesulfonyl-1-methyl-ethyl)-5-methyl-5,6,8a,9-tetrahydro-8H-7,10-dioxa-2,4,4b-triaza-phenanthren-3-yl]-phenyl}-methanol], the half-inhibitory concentration (IC50) was less than 1 nM.

`CNc1nc2ccccc2n1-c1nc(Cn2cc(C(=O)O)nn2)c2c(n1)N1[C@@H](COC[C@H]1C)CO2` [A17, 1-[(5R,8aS)-5-Methyl-3-(2-methylamino-benzimidazol-1-yl)-5,6,8a,9-tetrahydro-8H-7,10-dioxa-2,4,4b-triaza-phenanthren-1-ylmethyl]-1H[1,2,3]triazole-4-carboxylic Acid]: the IC50 was in the range of 100 to 500 nM.

On to `C[C@@H]1COC[C@H]2COc3c(nc(-c4ccc5ccncc5c4)nc3C(C)(C)S(C)(=O)=O)N21` [A76, (5R,8aS)-3-isoquinolin-7-yl-1-(1-methanesulfonyl-1-methyl-ethyl)-5-methyl-5,6,8a,9-tetrahydro-8H-7,10-dioxa-2,4,4b-triaza-phenanthrene], for which the IC50 lay in the range of 10 to 100 nM.

As to `C[C@@H]1COC[C@H]2COc3c(nc(-c4ccc5cc(N)ncc5c4)nc3C(C)(C)S(C)(=O)=O)N21` [A66, 7-[(5R,8aS)-1-(1-methanesulfonyl-1-methyl-ethyl)-5-methyl-5,6,8a,9-tetrahydro-8H-7,10-dioxa-2,4,4b-triaza-phenanthren-3-yl]-isoquinolin-3-ylamine], the IC50 lay in the range of 10 to 100 nM.

Regarding `C[C@@H]1COC[C@H]2COc3c(nc(C(=O)Nc4ccnnc4)nc3C(C)(C)S(C)(=O)=O)N21` [A57, (4bS,6R)-1-(1-methanesulfonyl-1-methyl-ethyl)-5-methyl-5,6,8a,9-tetrahydro-8H-7,10-dioxa-2,4,4b-triaza-phenanthrene-3-carboxylic Acid pyridazin-4-ylamide], the IC50 is 500 to 30000 nM.

In the case of `C[C@@H]1COC[C@H]2COc3c(nc(-c4cccc5c4CS(=O)(=O)N5)nc3C(C)(C)S(C)(=O)=O)N21` [A87, 4-[(10S,14R)-6-(2-methanesulfonylpropan-2-yl)-14-methyl-8,12-dioxa-1,3,5-triazatricyclo[8.4.0.0^{2,7}]tetradeca-2,4,6-trien-4-yl]-1,3-dihydro-2lambda6,1-benzothiazole-2,2-dione], the IC50 is 10 to 100 nM.

Consider `C[C@@H]1COC[C@H]2COc3c(nc(C(=O)Nc4ncccn4)nc3C(C)(C)S(C)(=O)=O)N21` [A58, (4bS,6R)-1-(1-methanesulfonyl-1-methyl-ethyl)-5-methyl-5,6,8a,9-tetrahydro-8H-7,10-dioxa-2,4,4b-triaza-phenanthrene-3-carboxylic Acid pyrimidin-2-ylamide], for which the IC50 lay in the range of 500 to 30000 nM.

As to `COC(=O)c1cn(Cc2nc(-c3ccnc4[nH]ccc34)nc3c2OC[C@@H]2COC[C@@H](C)N32)nn1` [A18, 1-[(5R,8aS)-5-Methyl-3-(1H-pyrrolo[2,3-b]pyridin-4-yl)-5,6,8a,9-tetrahydro-8H-7,10-dioxa-2,4,4b-triaza-phenanthren-1-ylmethyl]-1H-[1,2,3]triazole-4-carboxylic Acid Methyl Ester], the IC50 lay in the range of 1 to 10 nM.

For the compound `CNc1nc2ccccc2n1-c1nc(Cn2cc(C(=O)OC)nn2)c2c(n1)N1[C@@H](COC[C@H]1C)CO2` [A22, 1-[(5R,8aS)-5-Methyl-3-(2-methylamino-benzoimidazol-1-yl)-5,6,8a,9-tetrahydro-8H-7,10-dioxa-2,4,4b-triaza-phenanthren-1-ylmethyl]-1H[1,2,3]triazole-4-carboxylic Acid Methyl Ester], the IC50 was in the range of 10 to 100 nM.

In the case of `C[C@@H]1COC[C@H]2COc3c(nc(-c4ccc(-c5ccn[nH]5)cc4)nc3C(C)(C)S(C)(=O)=O)N21` [A60, (5R,8aS)-1-(1-methanesulfonyl-1-methyl-ethyl)-5-methyl-3-[4-(2H-pyrazol-3-yl)-phenyl]-5,6,8a,9-tetrahydro-8H-7,10-dioxa-2,4,4b-triaza-phenanthrene], the IC50 is 10 to 100 nM.

With `CNc1nc2ccccc2n1-c1nc2c(c(C(C)(C)S(C)(=O)=O)n1)OC[C@H]1COC[C@H](C)N21` [A14, {1-[(5S,8aR)-1-(1-Methanesulfonyl-1-methyl-ethyl)-5-methyl-5,6,8a,9-tetrahydro-8H-7,10-dioxa-2,4,4b-triaza-phenanthren-3-yl]-1H-benzimidazol-2-yl}-methyl-amine], the IC50 was in the range of 10 to 100 nM.

As to `C[C@@H]1COC[C@H]2COc3c(nc(-n4cc(C(N)=O)cn4)nc3C(C)(C)S(C)(=O)=O)N21` [A68, 1-[(S)-1-(1-methanesulfonyl-1-methyl-ethyl)-5-(R)-methyl-5,6,8a,9-tetrahydro-8H-7,10-dioxa-2,4,4b-triaza-phenanthren-3-yl]-1H-pyrazole-4-carboxylic Acid Amide], the IC50 was in the range of 500 to 30000 nM.

As to `C[C@@H]1COC[C@H]2COc3c(nc(-c4ccc5c(c4)CCNC5)nc3C(C)(C)S(C)(=O)=O)N21` [A71, (5R,8aS)-1-(1-methanesulfonyl-1-methyl-ethyl)-5-methyl-3-(1,2,3,4-tetrahydro-isoquinolin-6-yl)-5,6,8a,9-tetrahydro-8H-7,10-dioxa-2,4,4b-triaza-phenanthrene], the IC50 lay within 100 to 500 nM.

On to `C[C@@H]1COC[C@H]2COc3c(nc(-n4ccc(O)n4)nc3C(C)(C)S(C)(=O)=O)N21` [A82, 1-[(5R,8aS)-1-(1-methanesulfonyl-1-methyl-ethyl)-5-methyl-5,6,8a,9-tetrahydro-8H-7,10-dioxa-2,4,4b-triaza-phenanthren-3-yl]-1H-pyrazol-3-ol], for which the IC50 fell in the range of 10 to 100 nM.

Consider `CNc1nc2ccccc2n1-c1nc(Cn2nncc2C(=O)O)c2c(n1)N1[C@@H](COC[C@H]1C)CO2` [A3, 3-[(5R,8aS)-5-Methyl-3-(2-methylamino-benzoimidazol-1-yl)-5,6,8a,9-tetrahydro-8H-7,10-dioxa-2,4,4b-triaza-phenanthren-1-ylmethyl]-3H[1,2,3]triazole-4-carboxylic Acid], for which the IC50 was in the range of 100 to 500 nM.

In the case of `C[C@@H]1COC[C@H]2COc3c(nc(-c4ccc5ncccc5c4)nc3C(C)(C)S(C)(=O)=O)N21` [A77, (5R,8aS)-1-(1-methanesulfonyl-1-methyl-ethyl)-5-methyl-3-quinolin-6-yl-5,6,8a,9-tetrahydro-8H-7,10-dioxa-2,4,4b-triaza-phenanthrene], the IC50 was in the range of 10 to 100 nM.

Source of the values: patent US10570149B2, “Tricyclic heterocylic derivatives” (MERCK PATENT GMBH, priority 2016, dated 2020).
